In the assay the target is BRD4 (Homo sapiens, UniProt O60885). As to the kind of experiment: Time resolved fluorescence resonance energy transfer (TR-FRET) binding assay, bromodomain BRD4. Conditions: one of the FRET assays described; read-out: FRET BRD4 IC50. A general note: TR-FRET usually uses a lanthanide donor and a delayed reading to cut background.
Turning to `COc1ncc(S(C)(=O)=O)c2c1c1ncc(-c3c(C)nnn3C)cc1n2[C@H](c1ccccc1F)C1CCOCC1` [Example 50, 5-(Dimethyl-1H-1,2,3-triazol-5-yl)-8-[(S)-(2-fluorophenyl)(oxan-4-yl)methyl]-10-methanesulfonyl-13-methoxy-3,8,12-triazatricyclo[7.4.0.0^2,^7]trideca-1(13),2(7),3,5,9,11-hexaene], the IC50 was under 1 nM.
For `Cc1nnn(C)c1-c1cnc2c3cnc(Cl)cc3n(C(c3ncccc3F)C3CCOCC3)c2c1` (single isomer, unassigned) [Example 317], the IC50 is under 1500 nM.
For `[2H]C([2H])([2H])c1nnn(C)c1-c1cnc2c3cnc(Cl)cc3n([C@H](c3ncccc3F)C3CCOCC3)c2c1` (stereo in doubt) [Example 314, 11-Chloro-8-[(3-fluoropyridin-2-yl)(oxan-4-yl)methyl]-5-[4-(^2H3)methyl-1-methyl-1H-1,2,3-triazol-5-yl]-3,8,12-triazatricyclo[7.4.0.0^2,^7]trideca-1(9),2(7),3,5,10,12-hexaene], the half-maximal inhibitory concentration (IC50) was under 10 nM.
Take `COc1nccc2c3ncc(-c4c(C)nnn4C)cc3n(C(c3cc(F)ccc3F)C3CCOCC3)c12` (racemic) [Example 26, 8-[(2,5-Difluorophenyl)(oxan-4-yl)methyl]-5-(dimethyl-1H-1,2,3-triazol-5-yl)-10-methoxy-3,8,11-triazatricyclo[7.4.0.0^2,^7]trideca-1(13),2(7),3,5,9,11-hexaene]: the IC50 was under 10 nM.
Turning to `[2H]C([2H])([2H])c1nnn(C)c1-c1cnc2c3ccc(NCCc4nnn[nH]4)nc3n([C@H](c3ccccc3)C3CCOCC3)c2c1` [Example 295, 5-[4-(^2H3)Methyl-1-methyl-1H-1,2,3-triazol-5-yl]-8-[(S)-oxan-4-yl(phenyl)methyl]-N-[2-(1H-1,2,3,4-tetrazol-5-yl)ethyl]-3,8,10-triazatricyclo[7.4.0.0^2,^7]trideca-1(9),2(7),3,5,10,12-hexaen-11-amine], the IC50 is under 1 nM.
The result for `[2H]C([2H])([2H])c1nnn(C)c1-c1cnc2c3c(NCC(F)(F)F)ncc(S(C)(=O)=O)c3n([C@H](c3ccccc3)C3CCOCC3)c2c1` [Example 277, 10-Methanesulfonyl-5-[4-(^2H3)methyl-1-methyl-1H-1,2,3-triazol-5-yl]-8-[(S)-oxan-4-yl(phenyl)methyl]-N-(2,2,2-trifluoroethyl)-3,8,12-triazatricyclo[7.4.0.0^2,^7]trideca-1(13),2(7),3,5,9,11-hexaen-13-amine] reads under 1 nM.
`[2H]C([2H])([2H])N1CCN(c2ncc3c4ncc(-c5c(C)nnn5C)cc4n([C@H](c4ccccc4)C4CCOCC4)c3n2)CC1` [Example 156, 5-(Dimethyl-1H-1,2,3-triazol-5-yl)-11-[4-(^2H3)methylpiperazin-1-yl]-8-[(S)-oxan-4-yl(phenyl)methyl]-3,8,10,12-tetraazatricyclo[7.4.0.0^2,^7]trideca-1(9),2(7),3,5,10,12-hexaene]: the IC50 was under 10 nM.
Consider `[2H]C([2H])([2H])c1nnn(C)c1-c1cnc2c3c(NCC(F)F)nccc3n([C@H](c3ccccc3)C3CCOCC3)c2c1` [Example 133, N-(2,2-Difluoroethyl)-5-[4-(^2H3)methyl-1-methyl-1H-1,2,3-triazol-5-yl]-8-[(S)-oxan-4-yl(phenyl)methyl]-3,8,12-triazatricyclo[7.4.0.0^2,^7]trideca-1(13),2(7),3,5,9,11-hexaen-13-amine], for which the IC50 was under 1 nM.
For `CC(=O)c1ccc2c3ncc(-c4c(C)nnn4C)cc3n([C@H](c3ccccc3)C3CCOCC3)c2n1` [Example 171, 1-[5-(Dimethyl-1H-1,2,3-triazol-5-yl)-8-[(S)-oxan-4-yl(phenyl)methyl]-3,8,10-triazatricyclo[7.4.0.0^2,^7]trideca-1(9),2(7),3,5,10,12-hexaen-11-yl]ethan-1-one], the IC50 is under 10 nM.
The result for `CCCC(c1ccc(F)cn1)n1c2cc(-c3c(C)nnn3C)ncc2c2ncc(C(C)(C)O)cc21` (single isomer, unassigned) [Example 375] reads under 1500 nM; that for `Cc1nnn(C)c1-c1cnc2c3ccc(N4CC(O)C4)nc3n([C@H](c3ccccc3)C3CCOCC3)c2c1` [Example 179, 1-[5-(Dimethyl-1H-1,2,3-triazol-5-yl)-8-[(S)-oxan-4-yl(phenyl)methyl]-3,8,10-triazatricyclo[7.4.0.0^2,^7]trideca-1(9),2(7),3,5,10,12-hexaen-11-yl]azetidin-3-ol], under 1 nM.
The result for `[2H]C([2H])([2H])c1nnn(C)c1-c1cnc2c3c(OC)ncc(C(C)(C)O)c3n(C(c3ccccc3)C3CCC(F)(F)CC3)c2c1` (single isomer, unassigned) [Example 282, 2-{8-[(4,4-Difluorocyclohexyl)(phenyl)methyl]-13-methoxy-5-[4-(^2H3)methyl-1-methyl-1H-1,2,3-triazol-5-yl]-3,8,12-triazatricyclo[7.4.0.0^2,^7]trideca-1(9),2,4,6,10,12-hexaen-10-yl}propan-2-ol] reads under 1 nM; that for “2-{5-[4-(^2H3)Methyl-1-methyl-1H-1,2,3-triazol-5-yl]-8-[1-(pyridin-2-yl)butyl]-3,8,12-triazatricyclo[7.4.0.0^2,^7]trideca-1(13),2(7),3,5,9,11-hexaen-11-yl}propan-2-ol [Example 357]”, under 10 nM; that for `[2H]C([2H])([2H])c1nnn(C)c1-c1cnc2c3c(C(C)=O)cncc3n([C@H](c3ccccc3)C3CCOCC3)c2c1` [Example 297, 1-{5-[4-(^2H3)Methyl-1-methyl-1H-1,2,3-triazol-5-yl]-8-[(S)-oxan-4-yl(phenyl)methyl]-3,8,11-triazatricyclo[7.4.0.0^2,^7]trideca-1(9),2(7),3,5,10,12-hexaen-13-yl}ethan-1-one], under 10 nM.
The result for `[2H]C([2H])([2H])c1nnn(C)c1-c1cnc2c3c(OCC4CC4)nccc3n([C@H](c3ccccc3)C3CCOCC3)c2c1` [Example 130, 13-(Cyclopropylmethoxy)-5-[4-(^2H3)methyl-1-methyl-1H-1,2,3-triazol-5-yl]-8-[(S)-oxan-4-yl(phenyl)methyl]-3,8,12-triazatricyclo[7.4.0.0^2,^7]trideca-1(13),2(7),3,5,9,11-hexaene] reads under 1 nM; that for `[2H]C([2H])([2H])c1nnn(C)c1-c1cnc2c3ccc(C(C)=O)nc3n([C@H](c3ccccc3)C3CCOCC3)c2c1` [Example 202, 1-{5-[4-(^2H3)Methyl-1-methyl-1H-1,2,3-triazol-5-yl]-8-[(S)-oxan-4-yl(phenyl)methyl]-3,8,10-triazatricyclo[7.4.0.0^2,^7]trideca-1(9),2(7),3,5,10,12-hexaen-11-yl}ethan-1-one], under 10 nM.
`Cc1nnn(C)c1-c1cnc2c3ccc(N4CC(C)S(=O)(=O)C(C)C4)nc3n([C@H](c3ccccc3)C3CCOCC3)c2c1` (single isomer, unassigned) [Example 191]: the IC50 was under 1 nM.
The result for `[2H]C([2H])([2H])c1nnn(C)c1-c1cnc2c3ccc(NC)nc3n([C@H](c3ccccc3F)C3CCOCC3)c2c1` [Example 239, 8-[(S)-(2-Fluorophenyl)(oxan-4-yl)methyl]-N-methyl-5-[4-(^2H3)methyl-1-methyl-1H-1,2,3-triazol-5-yl]-3,8,10-triazatricyclo[7.4.0.0^2,^7]trideca-1(13),2(7),3,5,9,11-hexaen-11-amine] reads under 10 nM; that for `[2H]C([2H])([2H])c1nnn(C)c1-c1cnc2c3ccc(C(C)(O)C4CC4)nc3n([C@H](c3ccccc3F)C3CCOCC3)c2c1` (stereo partly drawn) [Example 242, 1-Cyclopropyl-1-{8-[(S)-(2-fluorophenyl)(oxan-4-yl)methyl]-5-[4-(^2H3)methyl-1-methyl-1H-1,2,3-triazol-5-yl]-3,8,10-triazatricyclo[7.4.0.0^2,^7]trideca-1(13),2(7),3,5,9,11-hexaen-11-yl}ethan-1-ol], under 10 nM.
Turning to `[2H]C([2H])([2H])c1nnn(C)c1-c1cnc2c3c(NCC(F)(F)F)nccc3n([C@H](c3ccccc3)C3CCOCC3)c2c1` [Example 134, 5-[4-(^2H3)Methyl-1-methyl-1H-1,2,3-triazol-5-yl]-8-[(S)-oxan-4-yl(phenyl)methyl]-N-(2,2,2-trifluoroethyl)-3,8,12-triazatricyclo[7.4.0.0^2,^7]trideca-1(13),2(7),3,5,9,11-hexaen-13-amine], the concentration for half-maximal inhibition (IC50) is under 1 nM.
As for `[2H]C([2H])([2H])c1nnn(C)c1-c1cnc2c3c(OC)ncc(S(C)(=O)=O)c3n([C@H](c3ccccc3)C3CCC(F)(F)CC3)c2c1` [Example 81, 8-[(S)-(4,4-Difluorocyclohexyl)(phenyl)methyl]-10-methanesulfonyl-13-methoxy-5-[4-(^2H3)methyl-1-methyl-1H-1,2,3-triazol-5-yl]-3,8,12-triazatricyclo[7.4.0.0^2,^7]trideca-1(13),2(7),3,5,9,11-hexaene], the IC50 is under 1 nM.
With `[2H]C([2H])([2H])c1nnn(C)c1-c1cnc2c3c(OCC4CC4)ncc(S(C)(=O)=O)c3n([C@H](c3ccc(F)cc3)C3CCOCC3)c2c1` [Example 78, 13-(Cyclopropylmethoxy)-8-[(S)-(4-fluorophenyl)(oxan-4-yl)methyl]-10-methanesulfonyl-5-[4-(^2H3)methyl-1-methyl-1H-1,2,3-triazol-5-yl]-3,8,12-triazatricyclo[7.4.0.0^2,^7]trideca-1(13),2(7),3,5,9,11-hexaene], the IC50 was under 1 nM.
For the compound `[2H]C([2H])([2H])c1nnn(C)c1-c1cnc2c3c(OC)ncc(S(C)(=O)=O)c3n(C(c3cccc(F)c3)C3CCOCC3)c2c1` (single isomer, unassigned) [Example 86, 8-[(3-Fluorophenyl)(oxan-4-yl)methyl]-10-methanesulfonyl-13-methoxy-5-[4-(^2H3)methyl-1-methyl-1H-1,2,3-triazol-5-yl]-3,8,12-triazatricyclo[7.4.0.0^2,^7]trideca-1(13),2(7),3,5,9,11-hexaene], the half-maximal inhibitory concentration (IC50) is under 10 nM.
The result for `COC(=O)c1cnc(OC)c2c3ncc(-c4c(C)nnn4C)cc3n([C@H](c3ccccc3)C3CCOCC3)c12` [Example 135, Methyl 5-(dimethyl-1H-1,2,3-triazol-5-yl)-13-methoxy-8-[(S)-oxan-4-yl(phenyl)methyl]-3,8,12-triazatricyclo[7.4.0.0^2,^7]trideca-1(9),2,4,6,10,12-hexaene-10-carboxylate] reads under 1 nM.

The IC50 is the concentration that gives 50% inhibition.

The values above are taken from patent US9725449B2, “Tricyclic compounds as anticancer agents” (BRISTOL-MYERS SQUIBB COMPANY, priority 2015, dated 2017).
